Experimental data as given in US9139532B2, “Pyrazolyl guanidine F1F0-atpase inhibitors and therapeutic uses thereof” (Lycera Corporation, priority 2010, dated 2015).
Read-outs that look alike come from different tables or passages of the source.

Key:
Ramos cells = test: Cytotoxicity in Ramos cells; assay type: cell-based; details: cytotoxicity in Ramos cells, read-out: Ramos Cell EC50
F1F0-ATPase = target: T1, F1F0-ATPase (Bos taurus, UniProt P13621); test: Inhibition of F1F0-ATPase activity in synthesizing ATP; assay type: biochemical; details: inhibition of ATP synthesis by F1F0-ATPase; read-out: ATP Syn IC50
T1 construct: from tissue

SMILES	EC50 (Ramos cells; Homo sapiens)	IC50 (F1F0-ATPase)	EC50 (Ramos cells)
O=C(N=C(Nc1cc(-c2ccc(F)cc2)n[nH]1)NC1CCOCC1)c1ccc(Cl)c(F)c1 [Compound A-139]	> 10 µM	> 10 µM	–
O=C(/N=C(\Nc1cc(-c2ccccc2)[nH]n1)NC1CCOCC1)c1ccc(Cl)c(F)c1 [Compound A-140]	–	> 10 µM	> 10 µM
CC(C)(C)N/C(=N/C(=O)c1ccc(Cl)c(F)c1)Nc1cc(-c2ccccc2)[nH]n1 [Compound A-141]	–	< 10 µM	< 10 µM
O=C(/N=C(/NCc1ccc(F)cc1Cl)Nc1cc(-c2ccc(F)cc2)[nH]n1)c1ccc(Cl)c(F)c1 [Compound A-142]	–	< 10 µM	< 10 µM
O=C(/N=C(/NCc1ccc(F)cc1Cl)Nc1cc(-c2ccccc2)[nH]n1)c1ccc(Cl)c(F)c1 [Compound A-143]	–	< 10 µM	< 10 µM
O=C(/N=C(/Nc1cc(F)cc(Cl)c1)Nc1cc(-c2cccs2)[nH]n1)c1ccc(Cl)c(F)c1 [Compound A-144]	–	< 10 µM	< 10 µM
O=C(/N=C(/Nc1cc(F)cc(Cl)c1)Nc1cc(-c2ccc(F)cc2)[nH]n1)c1ccc(Cl)c(F)c1 [Compound A-145]	–	< 10 µM	< 10 µM
O=C(/N=C(/Nc1cc(F)cc(Cl)c1)Nc1cc(C2CC2)[nH]n1)c1ccc(Cl)c(F)c1 [Compound A-146]	–	< 10 µM	< 10 µM
O=C(/N=C(/Nc1cc(F)cc(Cl)c1)Nc1cc(C2CCC2)[nH]n1)c1ccc(Cl)c(F)c1 [Compound A-147]	–	< 10 µM	< 10 µM
COc1ccc(-c2cc(N/C(=N\C(=O)c3ccc(Cl)c(F)c3)Nc3cc(F)cc(Cl)c3)n[nH]2)cc1 [Compound A-148]	–	> 10 µM	> 10 µM
O=C(N=C(Nc1cc(F)cc(Cl)c1)Nc1cc(-c2ccc(Cl)cc2)n[nH]1)c1ccc(Cl)c(F)c1 [Compound A-149]	< 10 µM	< 10 µM	–
Cc1ccc(-c2cc(N/C(=N\C(=O)c3ccc(Cl)c(F)c3)Nc3cc(F)cc(Cl)c3)n[nH]2)cc1 [Compound A-150]	–	< 10 µM	< 10 µM
O=C(/N=C(/Nc1cc(F)cc(Cl)c1)Nc1cc(-c2ccccc2)[nH]n1)c1ccc(C(F)(F)F)cc1 [Compound A-151]	–	< 10 µM	> 10 µM
CC(C)(C)NC(=NC(=O)c1ccc(Cl)c(F)c1)Nc1cc(-c2ccc(F)cc2)n[nH]1 [Compound A-152]	< 10 µM	< 10 µM	–
CC(C)(C)NC(=NC(=O)c1ccc(C(F)(F)F)cc1)Nc1cc(-c2ccccc2)[nH]n1 [Compound A-153]	< 10 µM	< 10 µM	–
O=C(/N=C(/Nc1cc(F)cc(Cl)c1)Nc1cc(-c2ccc(F)cc2)[nH]n1)c1ccc(C(F)(F)F)cc1 [Compound A-154]	–	< 10 µM	< 10 µM
Cc1cc(N/C(=N\C(=O)c2ccc(C(F)(F)F)cc2)NCC(C)(C)C)n[nH]1 [Compound A-155]	–	< 10 µM	< 10 µM
O=C(/N=C(\Nc1cc(-c2ccc(F)cc2)[nH]n1)N1CCCC1)c1ccc(F)cc1 [Compound A-156]	–	> 10 µM	> 10 µM
COc1ccccc1C(=O)/N=C(\Nc1cc(-c2ccc(F)cc2)[nH]n1)NC(C)(C)C [Compound A-157]	–	> 10 µM	> 10 µM
O=C(/N=C(\Nc1cc(-c2ccc(CO)cc2)[nH]n1)NC1CCCC1)c1ccc(F)c(F)c1 [Compound A-158]	–	> 10 µM	> 10 µM
CC(C)(C)N/C(=N/C(=O)c1ccc(F)c(F)c1)Nc1cc(-c2ccc(CO)cc2)[nH]n1 [Compound A-159]	–	< 10 µM	< 10 µM
CCOCCCN/C(=N/C(=O)c1ccc(F)c(F)c1)Nc1[nH]nc(-c2ccc(Cl)cc2)c1F [Compound A-160]	–	< 10 µM	> 10 µM
CC(C)CN/C(=N/C(=O)c1ccc(F)c(F)c1)Nc1[nH]nc(-c2ccc(Cl)cc2)c1F [Compound A-161]	–	> 10 µM	> 10 µM
CC(C)(C)N/C(=N/C(=O)c1ccc(F)c(F)c1)Nc1[nH]nc(-c2ccc(Cl)cc2)c1F [Compound A-162]	–	< 10 µM	< 10 µM
CC(C)CNC(=NC(=O)c1ccc(N2CCOCC2)nc1)Nc1cc(-c2ccc(F)cc2)n[nH]1 [Compound A-163]	< 10 µM	< 10 µM	–
CC(C)(C)N/C(=N/C(=O)c1ccc(N2CCOCC2)nc1)Nc1cc(-c2ccc(F)cc2)[nH]n1 [Compound A-164]	–	< 10 µM	< 10 µM
CC(C)CN/C(=N/C(=O)c1cccnc1C(F)(F)F)Nc1cc(-c2ccc(F)cc2)[nH]n1 [Compound A-166]	–	< 10 µM	< 10 µM

SMILES	EC50 (Ramos cells; Homo sapiens)	IC50 (F1F0-ATPase)	EC50 (Ramos cells)
CC(C)(C)N/C(=N/C(=O)c1cccnc1C(F)(F)F)Nc1cc(-c2ccc(F)cc2)[nH]n1 [Compound A-167]	–	< 10 µM	< 10 µM
COc1cccc(C(=O)/N=C(/Nc2cc(F)cc(Cl)c2)Nc2cc(-c3ccc(Cl)cc3)[nH]n2)c1 [Compound A-168]	–	< 10 µM	< 10 µM
COc1cccc(C(=O)/N=C(/NCC(C)C)Nc2cc(-c3ccc(Cl)cc3)[nH]n2)c1 [Compound A-169]	–	< 10 µM	< 10 µM
CCC(C)N/C(=N/C(=O)c1cccc(OC)c1)Nc1cc(-c2ccc(Cl)cc2)n[nH]1 (stereo not shown) [Compound A-170]	< 10 µM	< 10 µM	–
COc1cccc(C(=O)/N=C(/NCC(C)C)Nc2cc(-c3ccc(F)cc3)[nH]n2)c1 [Compound A-171]	–	< 10 µM	< 10 µM
CCC(C)N/C(=N/C(=O)c1cccc(OC)c1)Nc1cc(-c2ccc(F)cc2)n[nH]1 (stereo not shown) [Compound A-172]	< 10 µM	< 10 µM	–
COC(=O)Cc1ccc(N/C(=N/C(=O)c2ccc(F)cc2)Nc2cc(C(F)(F)F)n[nH]2)cc1 [Compound A-173]	< 10 µM	< 10 µM	–
CCc1cc(C(=O)/N=C(\Nc2cc(-c3ccc(F)cc3)n[nH]2)NC(C)CC)ccn1 (stereo not shown) [Compound A-174]	< 10 µM	< 10 µM	–
CCOCCCN/C(=N/C(=O)c1ccnc(CC)c1)Nc1cc(-c2ccc(F)cc2)[nH]n1 [Compound A-175]	–	< 10 µM	> 10 µM
CCc1cc(C(=O)N=C(NCC(C)C)Nc2cc(-c3ccc(F)cc3)n[nH]2)ccn1 [Compound A-176]	< 10 µM	< 10 µM	–
CCc1cc(C(=O)/N=C(\Nc2cc(-c3ccc(F)cc3)[nH]n2)NC(C)(C)C)ccn1 [Compound A-177]	–	< 10 µM	< 10 µM
CCC(C)N/C(=N/C(=O)c1ccc(Cl)c(F)c1)Nc1cc(C)n[nH]1 (stereo not shown) [Compound A-178]	< 10 µM	< 10 µM	–
Cc1cc(NC(=NC(=O)c2ccc(Cl)c(F)c2)NCCC(F)(F)F)[nH]n1 [Compound A-179]	> 10 µM	> 10 µM	–
CCOC[C@H](C)N/C(=N/C(=O)c1ccc(Cl)c(F)c1)Nc1cc(C)[nH]n1 [Compound A-180]	–	< 10 µM	> 10 µM
Cc1cc(NC(=NC(=O)c2ccc(Cl)c(F)c2)NC(C)(C)C)[nH]n1 [Compound A-181]	< 10 µM	< 10 µM	–
COc1ccc(C(=O)/N=C(/NCC(C)C)Nc2cc(-c3ccc(F)cc3)[nH]n2)cn1 [Compound A-182]	–	< 10 µM	< 10 µM
Cc1cc(N/C(=N\C(=O)c2ccc(C(F)(F)F)cc2)NCCC(F)(F)F)n[nH]1 [Compound A-183]	–	< 10 µM	< 10 µM
CCOCCCN/C(=N/C(=O)c1ccc(C(F)(F)F)cc1)Nc1cc(C)[nH]n1 [Compound A-184]	–	> 10 µM	> 10 µM
Cc1cc(N/C(=N\C(=O)c2ccc(C(F)(F)F)cc2)NC2CCCC2)n[nH]1 [Compound A-185]	–	< 10 µM	< 10 µM
Cc1cc(N/C(=N\C(=O)c2ccc(F)c(F)c2)NCCC(F)(F)F)n[nH]1 [Compound A-186]	–	> 10 µM	> 10 µM
Cc1cc(N/C(=N\C(=O)c2ccc(F)c(F)c2)NCC(C)(C)C)n[nH]1 [Compound A-187]	–	< 10 µM	< 10 µM
Cc1cc(N/C(=N\C(=O)c2ccc(F)c(F)c2)NC2CCCC2)n[nH]1 [Compound A-188]	–	< 10 µM	> 10 µM
Cc1cc(N/C(=N\C(=O)c2ccc(C(F)(F)F)cc2)NCC(C)C)n[nH]1 [Compound A-189]	–	< 10 µM	< 10 µM
Cc1cc(N/C(=N\C(=O)c2ccc(C(F)(F)F)cc2)NC(C)C)n[nH]1 [Compound A-190]	–	> 10 µM	> 10 µM
Cc1cc(N/C(=N\C(=O)c2ccc(F)c(F)c2)NCC(C)C)n[nH]1 [Compound A-191]	–	> 10 µM	> 10 µM
Cc1cc(N/C(=N\C(=O)c2ccc(F)c(F)c2)NC(C)(C)C)n[nH]1 [Compound A-192]	–	< 10 µM	< 10 µM
